The record followed here is ChEMBL document CHEMBL4613208, “Isatin derivatives and their anti-bacterial activities” (Eur J Med Chem, 2019).

Molecules are shown by their SMILES. ≈ marks a conversion by molar mass, not a printed value.

One assay deals with Streptococcus pyogenes. Put plainly: Antibacterial activity against Streptococcus pyogenes. It counts as functional.
The test system of assay [1] is Staphylococcus aureus. Description: Antibacterial activity against Staphylococcus aureus. The assay is classed as functional, organism-based.
For another assay, the system named is Proteus vulgaris. Put plainly: Antibacterial activity against Proteus vulgaris. It counts as functional.
A further assay concerns Shigella flexneri. Put plainly: Antibacterial activity against Shigella flexneri. The assay is classed as functional.
Assay [2] concerns Bacillus subtilis. Description: Antibacterial activity against Bacillus subtilis. The assay is classed as functional.
The subject of assay [3] is Klebsiella pneumoniae. Put plainly: Antibacterial activity against Klebsiella pneumoniae. The assay is classed as functional.
Assay [4] has as its system Staphylococcus aureus. Description: Antibacterial activity against Staphylococcus aureus assessed as zone of inhibition at 20 mg/ml. The assay is classed as functional. To be noted: read-out: IZ.
Assay [5] concerns Pseudomonas aeruginosa. Description: Antibacterial activity against Pseudomonas aeruginosa assessed as zone of inhibition at 20 mg/ml. It counts as functional. To be noted: read-out: IZ.
Assay [6] relates to Escherichia coli. Put plainly: Antibacterial activity against Escherichia coli assessed as zone of inhibition at 20 mg/ml. It counts as functional. To be noted: read-out: IZ.
Assay [7] has as its system Bacillus subtilis. Description: Antibacterial activity against Bacillus subtilis assessed as zone of inhibition at 20 mg/ml. It counts as functional. To be noted: read-out: IZ.
Another assay deals with Salmonella typhi. Put plainly: Antibacterial activity against Salmonella typhi. It counts as functional, Salmonella enterica subsp. enterica serovar Typhi. To be noted: Salmonella enterica.
Assay [8] deals with Pseudomonas aeruginosa. Put plainly: Antibacterial activity against Pseudomonas aeruginosa. The assay is classed as functional, organism-based.
Assay [9] deals with Staphylococcus epidermidis. Description: Antibacterial activity against Staphylococcus epidermidis. The assay is classed as functional.
Another assay has as its system Citrobacter freundii. Put plainly: Antibacterial activity against Citrobacter freundii. The assay is classed as functional.
Assay [10] deals with Escherichia coli. Put plainly: Antibacterial activity against Escherichia coli. It counts as functional, organism-based.
The test system of a further assay is Vibrio cholerae. Put plainly: Antibacterial activity against Vibrio cholerae. The assay is classed as functional.
The test system of assay [11] is Escherichia coli. Description: Potency index, ratio of ED50 for norfloxacin to ED50 for test compound for in vivo antibacterial activity against Escherichia coli infected in po dosed mouse. The assay is classed as functional.
Assay [12] deals with Escherichia coli. Put plainly: Antibacterial activity against Escherichia coli NCTC 10418. It counts as functional.
Another assay has as its system Bacillus cereus. Description: Antibacterial activity against Bacillus cereus after 24 hrs by agar well diffusion technique. It counts as functional.
For assay [13], the system named is Shigella dysenteriae. Description: Antibacterial activity against Shigella dysenteriae after 24 hrs by agar well diffusion technique. The assay is classed as functional. (In agar diffusion tests the substance spreads into inoculated agar from a disc or well.)
In assay [14] the test system is Staphylococcus aureus. Put plainly: Antibacterial activity against Staphylococcus aureus ATCC 25923 after 24 hrs by agar well diffusion technique. It counts as functional. Particulars: ATCC 25923, 24 h.
For assay [15], the system named is Escherichia coli. Description: Antibacterial activity against Escherichia coli ATCC 25922 after 24 hrs by agar well diffusion technique. It counts as functional. Particulars: ATCC 25922, 24 h.
The subject of assay [16] is Shigella dysenteriae. Put plainly: Potency index, ratio of MIC for sulfamethoxazole to MIC for test compound for antibacterial activity against Shigella dysenteriae after 24 hrs by agar well diffusion technique. It counts as functional.
Assay [17] has as its system Staphylococcus epidermidis. Put plainly: Antibacterial activity against Staphylococcus epidermidis after 24 hrs by paper disc diffusion technique. To be noted: Staphylococcus epidermidis, 24 h. The assay is classed as functional.
In assay [18] the test system is Staphylococcus aureus. Put plainly: Antibacterial activity against Staphylococcus aureus after 24 hrs by paper disc diffusion technique. It counts as functional. To be noted: Staphylococcus aureus, 24 h; read-out: MIC.
For assay [19], the system named is Pseudomonas aeruginosa. Put plainly: Antibacterial activity against Pseudomonas aeruginosa after 24 hrs by paper disc diffusion technique. It counts as functional. Particulars: Pseudomonas aeruginosa, 24 h; read-out: MIC.
The subject of a further assay is Micrococcus luteus. Description: Antibacterial activity against Micrococcus luteus after 24 hrs by paper disc diffusion technique. It counts as functional. To be noted: Micrococcus luteus, 24 h.
Assay [20] relates to Klebsiella pneumoniae. Description: Antibacterial activity against Klebsiella pneumoniae after 24 hrs by paper disc diffusion technique. It counts as functional. To be noted: Klebsiella pneumoniae, 24 h; read-out: MIC.
For assay [21], the system named is Escherichia coli. Put plainly: Antibacterial activity against Escherichia coli after 24 hrs by paper disc diffusion technique. It counts as functional. To be noted: Escherichia coli, 24 h; read-out: MIC.
The next assay has as its system Bacillus pumilus. Description: Antibacterial activity against Bacillus pumilus. The assay is classed as functional.
The subject of another assay is Priestia megaterium. Put plainly: Antibacterial activity against Bacillus megaterium. The assay is classed as functional.

As to `CC1(C)S[C@@H]2[C@H](NC(=O)[C@H](N)c3ccccc3)C(=O)N2[C@H]1C(=O)O` [AMPICILLIN], the minimum inhibitory concentration (MIC) in the assay with Streptococcus pyogenes, in the assay on Staphylococcus aureus [1], in the assay with Proteus vulgaris, against Shigella flexneri, against Bacillus subtilis [2] and against Klebsiella pneumoniae [3] was 0.007 to 1.95 µg/mL (≈ 0.02 to 5.58 µM) in each case.
Regarding `CCOC(=O)CN1C(=O)/C(=C2\SC(=S)N(CC(=O)N(c3oc(NC(C)(C)C)c(C(=O)OCC)c3C(=O)OCC)C(C)(C)C)C2=O)c2ccccc21`, the zone of inhibition at 20000 µg/mL in the assay on Staphylococcus aureus [4], with Pseudomonas aeruginosa [5], in the assay with Escherichia coli [6] and in the assay on Bacillus subtilis [7] was 15.6 to 26 mm in each case.
As to `CCn1cc(C(=O)O)c(=O)c2cc(F)c(N3CCNC(C)C3)c(F)c21` (stereo not given) [LOMEFLOXACIN], the MIC in the assay on Staphylococcus aureus [1] is 0.25 to 2.5 µg/mL (≈ 0.712 to 7.12 µM); against Salmonella typhi it was 0.25 to 2.5 µg/mL; against Pseudomonas aeruginosa [8], 0.25 to 2.5 µg/mL (≈ 0.712 to 7.12 µM); with Shigella flexneri, 0.25 to 2.5 µg/mL (≈ 0.712 to 7.12 µM); in [9] it was 0.25 to 2.5 µg/mL (≈ 0.712 to 7.12 µM); in the assay on Citrobacter freundii, 0.25 to 2.5 µg/mL (≈ 0.712 to 7.12 µM). Also, the MIC in the assay on Escherichia coli [10], in the assay on Vibrio cholerae and against Klebsiella pneumoniae [3] was 0.25 to 2.5 µg/mL (≈ 0.712 to 7.12 µM) in each case.
Regarding `[N-]=[N+]=Nc1ccc(C2=NN(C(=O)CN3C(=O)C(=O)c4ccccc43)C(c3ccc(F)cc3)C2)cc1` (stereo not given), the MIC against Staphylococcus aureus [1], in the assay on Pseudomonas aeruginosa [8], against Escherichia coli [10] and in the assay with Bacillus subtilis [2] was 6.25 to 50 µg/mL (≈ 13.3 to 107 µM) in each case.
Take `CC1S/C(=N/N=C2\C(=O)Nc3ccc(S(=O)(=O)N4CCOCC4)cc32)N(c2ccccc2)C1=O` (stereo not given): the MIC in the assay with Streptococcus pyogenes, against Staphylococcus aureus [1], with Proteus vulgaris, against Shigella flexneri, against Bacillus subtilis [2] and in the assay on Klebsiella pneumoniae [3] was 0.03 to 3.9 µg/mL (≈ 0.0601 to 7.81 µM) each time.
As for `CCn1cc(C(=O)O)c(=O)c2cc(F)c(N3CCN(CN4C(=O)/C(=N\c5ncc(Cc6cc(OC)c(OC)c(OC)c6)c(N)n5)c5cc(Br)ccc54)CC3)cc21`, the “Ratio ED50” value in the assay on Escherichia coli [11] is reported as >3.7. In the assay on Escherichia coli [12], the MIC is < 1 µg/mL.
As for `Cc1cc(NS(=O)(=O)c2ccc(/N=C3\C(=O)N(CO)c4ccccc43)cc2)no1`, the minimal inhibitory concentration (MIC) against Bacillus cereus, in the assay with Shigella dysenteriae [13], against Staphylococcus aureus [14] and against Escherichia coli [15] was 1 to 15 µg/mL (≈ 2.42 to 36.4 µM) in each case.
On to `Cc1cc(NS(=O)(=O)c2ccc(N)cc2)no1` [SULFAMETHOXAZOLE], for which the MIC with Bacillus cereus, in the assay with Shigella dysenteriae [13], in the assay with Staphylococcus aureus [14] and with Escherichia coli [15] was 2.5 µg/mL (≈ 9.87 µM) in each case.
As to `O=C1Nc2ccc(S(=O)(=O)N3CCOCC3)cc2C1=O`, the MIC in the assay with Streptococcus pyogenes, against Staphylococcus aureus [1], in the assay with Proteus vulgaris, against Shigella flexneri, in the assay on Bacillus subtilis [2] and with Klebsiella pneumoniae [3] was 0.007 to 0.49 µg/mL (≈ 0.0236 to 1.65 µM) each time.
Regarding `Cc1ccc2c(c1)C(=O)C(=O)N2CN1CCN(c2cc3c(cc2F)c(=O)c(C(=O)O)cn3C2CC2)CC1`, the MIC was in the range of 0.1 to 0.5 µg/mL (≈ 0.198 to 0.991 µM) against Staphylococcus aureus [1]; 0.1 to 0.5 µg/mL in the assay with Salmonella typhi; 0.1 to 0.5 µg/mL (≈ 0.198 to 0.991 µM) in the assay with Pseudomonas aeruginosa [8]; 0.1 to 0.5 µg/mL (≈ 0.198 to 0.991 µM) in the assay with Shigella flexneri; 0.1 to 0.5 µg/mL (≈ 0.198 to 0.991 µM) in [9]; 0.1 to 0.5 µg/mL (≈ 0.198 to 0.991 µM) with Citrobacter freundii. The minimum inhibitory concentration (MIC) with Escherichia coli [10], in the assay on Vibrio cholerae and against Klebsiella pneumoniae [3] was 0.1 to 0.5 µg/mL (≈ 0.198 to 0.991 µM) throughout.
With `Cc1ccc2c(c1)/C(=N/c1ccc(S(=O)(=O)Nc3cc(C)on3)cc1)C(=O)N2`, in the assay on Shigella dysenteriae [16], the Ratio is recorded as 2.5. The MIC in the assay on Bacillus cereus stood at 5 µg/mL (≈ 12.6 µM); with Shigella dysenteriae [13], 1 µg/mL (≈ 2.52 µM); in the assay on Staphylococcus aureus [14], 5 µg/mL (≈ 12.6 µM); against Escherichia coli [15] it was 5 µg/mL (≈ 12.6 µM).
Consider `O=C(O)c1cn(C2CC2)c2cc(N3CCNCC3)c(F)cc2c1=O` [CIPROFLOXACIN], for which the minimum inhibitory concentration (MIC) is 3.9 to 15.6 µg/mL (≈ 11.8 to 47.1 µM) in [17]; < 5 µg/mL against Staphylococcus aureus [1]; 2 nM against Salmonella typhi; 3.9 to 15.6 µg/mL (≈ 11.8 to 47.1 µM) in the assay on Staphylococcus aureus [18]; < 5 µg/mL in the assay on Pseudomonas aeruginosa [8]; 3.9 to 15.6 µg/mL (≈ 11.8 to 47.1 µM) in the assay on Pseudomonas aeruginosa [19]. In addition, the minimum inhibitory concentration (MIC) in the assay with Micrococcus luteus is 3.9 to 15.6 µg/mL (≈ 11.8 to 47.1 µM); in the assay on Klebsiella pneumoniae [20], 3.9 to 15.6 µg/mL (≈ 11.8 to 47.1 µM); with Escherichia coli [10], < 5 µg/mL; against Bacillus subtilis [2], < 5 µg/mL; in the assay on Escherichia coli [21] it was 3.9 to 15.6 µg/mL (≈ 11.8 to 47.1 µM).
As for `N[C@@H](C(=O)N[C@@H]1C(=O)N2C(C(=O)O)=C(Cl)CS[C@H]12)c1ccccc1` [CEFACLOR ANHYDROUS], the MIC (with Staphylococcus aureus [1]; in the assay with Bacillus pumilus; against Pseudomonas aeruginosa [8]; in assay [9]; in the assay with Priestia megaterium) was 2 to 8 µg/mL (≈ 5.44 to 21.8 µM) each time.

The term MIC denotes the least concentration at which growth counts as inhibited.
